From ChEMBL document CHEMBL4814022, “Enantiomeric 4'-truncated 6'-fluoro-3-deazaneplanocin and its 3-bromo derivative: Synthesis and antiviral properties, including Ebola and Marburg” (Bioorg Med Chem Lett, 2021)
Calls of active or inactive are those of the source. The rule behind the calls is not given here.

Columns and labels:
Lassa virus = test: Antiviral activity against Lassa virus infected in African green monkey Vero cells; format: functional, organism-based; conditions: Mammarenavirus lassaense
Yellow fever virus = test: Antiviral activity against Yellow fever virus infected in African green monkey Vero 76 cells; format: functional, organism-based
Rift Valley fever virus = test: Antiviral activity against Rift Valley fever virus infected in African green monkey Vero 76 cells; format: functional, organism-based
Ebolavirus = test: Antiviral activity against Ebola virus infected in African green monkey Vero 76 cells; format: functional, organism-based
[1] = Cytotoxicity against human HFF cells; format: cell-based
Human alphaherpesvirus 1 = test: Antiviral activity against HSV-1 infected in human HFF cells; format: functional, organism-based
Measles morbillivirus [2] = test: Antiviral activity against Measles virus infected in African green monkey Vero 76 cells; format: functional, organism-based
[3] = test system: Venezuelan equine encephalitis virus; test: Antiviral activity against Venezuelan equine encephalitis virus infected in African green monkey Vero 76 cells; format: functional, organism-based
Chikungunya virus = test: Antiviral activity against Chikungunya virus infected in African green monkey Vero 76 cells; format: functional, organism-based
Tacaribe virus = test: Antiviral activity against Tacaribe virus infected in African green monkey Vero cells; format: functional, organism-based; conditions: Mammarenavirus tacaribeense
West Nile virus = test: Antiviral activity against West Nile virus infected in African green monkey Vero 76 cells; format: functional, organism-based
[4] = Selectivity index, ratio of EC50 for antiviral activity against BK polyomavirus infected in human HFF cells by visible analysis to CC50 for human HFF cells; format: toxicity, cell-based; conditions: read-out: Ratio CC50/EC50
Enterovirus A71 = test: Antiviral activity against Human enterovirus 71 infected in African green monkey Vero 76 cells; format: functional, organism-based
Influenza A virus = test: Antiviral activity against Influenza A virus (H1N1) infected in dog MDCK cells; format: functional, organism-based
Pichinde virus = test: Antiviral activity against Pichinde virus infected in African green monkey Vero cells; format: functional, organism-based
BK polyomavirus = test: Antiviral activity against BK polyomavirus infected in human HFF cells; format: functional, organism-based; conditions: Betapolyomavirus hominis
dengue virus type 2 = test: Antiviral activity against Dengue virus 2 infected in African green monkey Vero 76 cells; format: functional, organism-based
[5] = Selectivity index, ratio of EC50 for antiviral activity against Norovirus infected in human HG23 cells by visible analysis to CC50 for human HG23 cells; format: toxicity, cell-based
[6] = Cytotoxicity against human HG23 cells; format: cell-based
Norovirus = test: Antiviral activity against Norovirus infected in human HG23 cells; format: functional, organism-based
[7] = Selectivity index, ratio of EC50 for antiviral activity against Marburgvirus Angola infected in African green monkey Vero cells to CC50 for African green monkey Vero cells; format: toxicity; conditions: read-out: Ratio CC50/EC50
Marburgvirus = test: Antiviral activity against Marburgvirus Angola infected in African green monkey Vero cells; format: functional, organism-based; conditions: Orthomarburgvirus
[8] = Selectivity index, ratio of CC50 for African green monkey Vero cells to EC50 for antiviral activity against Ebola virus infected in African green monkey Vero cells; format: toxicity; conditions: read-out: Ratio CC50/EC50
[9] = Cytotoxicity against African green monkey Vero cells; format: cell-based; conditions: chlorocebus sabaeus
Zaire ebolavirus = test: Antiviral activity against Zaire ebola virus infected in African green monkey Vero cells; format: functional, organism-based
Murine norovirus = test: Antiviral activity against Murine norovirus infected in mouse RAW264.7 cells; format: functional, organism-based
[10] = test system: Japanese encephalitis virus; test: Antiviral activity against Japanese encephalitis virus infected in African green monkey Vero 76 cells; format: functional, organism-based
Hepatitis B virus = test: Antiviral activity against Hepatitis B virus infected in human HepG2.2.15 cells; format: functional, organism-based
[11] = Selectivity index, ratio of EC50 for antiviral activity against Measles virus infected in African green monkey Vero cells by visible analysis to CC50 for African green monkey Vero cells; format: toxicity; conditions: read-out: Ratio CC50/EC50
Human adenovirus 5 = test: Antiviral activity against Human adenovirus 5 infected in human A549 cells; format: functional, organism-based
Punta Toro virus = test: Antiviral activity against Punta Toro virus infected in African green monkey Vero 76 cells; format: functional, organism-based
Measles morbillivirus [12] = test: Antiviral activity against Measles virus infected in African green monkey Vero cells by visible analysis; format: functional, organism-based
Junin virus = test: Antiviral activity against Junin virus infected in African green monkey Vero cells; format: functional, organism-based; conditions: Mammarenavirus juninense
Measles morbillivirus [13] = test: Antiviral activity against Measles virus infected in African green monkey Vero cells by neutral red assay; format: functional, organism-based
[14] = Selectivity index, ratio of EC50 for antiviral activity against Measles virus infected in African green monkey Vero cells to CC50 for African green monkey Vero cells; format: toxicity; conditions: read-out: Ratio CC50/EC50

SMILES	Activity (Yellow fever virus)	Activity (Rift Valley fever virus)	Activity [3]	Activity (Chikungunya virus)	Activity (Tacaribe virus)	Activity (West Nile virus)	Activity (Enterovirus A71)	Activity (Influenza A virus)	Activity (Pichinde virus)	Activity (dengue virus type 2)	CC50 [6] [µM]	EC50 (Norovirus) [µM]	selectivity ratio [7]	EC50 (Marburgvirus) [µM]	selectivity ratio [8]	CC50 [9] [µM]	EC50 (Zaire ebolavirus) [µM]	EC50 (Measles morbillivirus [13]) [µM]	selectivity ratio [14]	also measured
Nc1ncc(Br)c2c1ncn2[C@H]1C(F)=C[C@H](O)[C@@H]1O	inactive	inactive	inactive	inactive	inactive	inactive	inactive	inactive	inactive	inactive	–	–	–	–	–	–	–	–	–	Activity (Lassa virus): inactive; Activity (Ebolavirus): inactive; CC50 [1]: > 150 µM; Activity (Human alphaherpesvirus 1): inactive; Activity (Measles morbillivirus [2]): inactive; selectivity ratio [4]: > 4; EC50 (BK polyomavirus): 34.5 µM; EC90 (BK polyomavirus): 145 µM
C[C@@]1(O)[C@H](O)[C@@H](CO)O[C@H]1n1ccc(N)nc1=O	–	–	–	–	–	–	–	–	–	–	> 300	6.4	–	–	–	–	–	–	–	selectivity ratio [5]: > 47
Nc1nccc2c1ncn2[C@H]1C(F)=C[C@H](O)[C@@H]1O	inactive	inactive	inactive	inactive	inactive	inactive	inactive	inactive	inactive	inactive	–	–	–	–	–	–	–	–	–	Activity (Lassa virus): inactive; Activity (Ebolavirus): inactive; CC50 [1]: > 150 µM; Activity (Human alphaherpesvirus 1): inactive; Activity (Measles morbillivirus [2]): inactive; selectivity ratio [4]: > 7; EC50 (BK polyomavirus): 23 µM
NC(=O)c1nc(F)cnc1O [FAVIPIRAVIR]	–	–	–	–	–	–	–	–	–	–	–	–	> 6.5	155	15	> 1000	66	–	–	–
Nc1ncc(Br)c2c1ncn2[C@@H]1C(F)=C[C@@H](O)[C@H]1O	inactive	inactive	inactive	inactive	inactive	inactive	inactive	inactive	inactive	inactive	> 100	6.4	420	0.1	381	≥ 9.5	0.11	1.2	7.9	selectivity ratio ([5]; read-out: Ratio CC50/EC50): > 16; Activity (Murine norovirus): inactive; Activity [10]: inactive; Activity (Hepatitis B virus): inactive; selectivity ratio [11]: 6.7; Activity (Human adenovirus 5): inactive; Activity (Punta Toro virus): inactive; EC50 (Measles morbillivirus [12]): 1.8 µM; Activity (Junin virus): inactive
Nc1nccc2c1ncn2[C@@H]1C(F)=C[C@@H](O)[C@H]1O	inactive	inactive	inactive	inactive	inactive	inactive	inactive	inactive	inactive	inactive	> 100	2.7	27	0.52	117	≥ 14	0.12	3.6	36	selectivity ratio ([5]; read-out: Ratio CC50/EC50): > 37; Activity (Murine norovirus): inactive; Activity [10]: inactive; Activity (Hepatitis B virus): inactive; selectivity ratio [11]: 10; Activity (Human adenovirus 5): inactive; Activity (Punta Toro virus): inactive; EC50 (Measles morbillivirus [12]): 4.2 µM; Activity (Junin virus): inactive
Nc1ccn([C@@H]2O[C@H](CO)[C@@H](O)[C@H]2F)c(=O)n1	–	–	–	–	–	–	–	–	–	–	–	–	–	–	–	–	–	1.1	> 91	–
